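Following 48 hours of exposure in 96-well plates, responses at five concentrations were used to interpolate endpoints linearly. GI50 is the concentration that inhibits growth by half.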 Activity calls are given as the source filed them. Rule as the data show it: active = GI50 up to about 1.1 µM and inactive = higher.
Assays:
Assay in all cases: NCI tumour cell line growth inhibition, 48 h
NCI-H460 = test system: NCI-H460
SF-295 = test system: SF-295
U-251 = test system: U-251
DU-145 = test system: DU-145
SK-MEL-28 = test system: SK-MEL-28
KM12 = test system: KM12
OVCAR-5 = test system: OVCAR-5
SNB-75 = test system: SNB-75
M14 = test system: M14
Malme-3M = test system: Malme-3M
UACC-62 = test system: UACC-62
UO-31 = test system: UO-31
IGROV-1 = test system: IGROV-1
MCF7 = test system: MCF7
RXF 393 = test system: RXF 393
BT-549 = test system: BT-549
K562 = test system: K562
OVCAR-4 = test system: OVCAR-4
HL-60 = test system: HL-60
SR = test system: SR

Structure (SMILES) | GI50 (NCI-H460) | GI50 (SF-295) | GI50 (U-251) | GI50 (DU-145) | GI50 (SK-MEL-28) | GI50 (KM12) | GI50 (OVCAR-5) | GI50 (SNB-75) | GI50 (M14) | GI50 (Malme-3M) | GI50 (UACC-62) | GI50 (UO-31) | GI50 (IGROV-1) | GI50 (MCF7) | GI50 (RXF 393) | GI50 (BT-549) | GI50 (K562) | GI50 (OVCAR-4) | GI50 (HL-60) | GI50 (SR)
O=C(/C=C/c1ccc(O)c(O)c1)OCCc1ccc2ccccc2c1 | 7.05 µM (inactive) | 10.9 µM (inactive) | 10.8 µM (inactive) | 11.9 µM (inactive) | 9.14 µM (inactive) | 3.64 µM (inactive) | 16.1 µM (inactive) | 1.87 µM (inactive) | 4.95 µM (inactive) | 10.9 µM (inactive) | 3.69 µM (inactive) | 3.19 µM (inactive) | 2.32 µM (inactive) | 2.74 µM (inactive) | 9.46 µM (inactive) | 2.91 µM (inactive) | 2.99 µM (inactive) | – | – | –
Cc1cc(=O)n2nc(CSc3nnc(N)s3)sc2n1 | > 100 µM (inactive) | > 100 µM (inactive) | > 100 µM (inactive) | > 100 µM (inactive) | > 100 µM (inactive) | > 100 µM (inactive) | > 100 µM (inactive) | > 100 µM (inactive) | > 100 µM (inactive) | > 100 µM (inactive) | > 100 µM (inactive) | > 100 µM (inactive) | > 100 µM (inactive) | > 100 µM (inactive) | > 100 µM (inactive) | > 100 µM (inactive) | > 100 µM (inactive) | > 100 µM (inactive) | > 100 µM (inactive) | –
Cc1cn([C@H]2C[C@@H](N3C(=O)c4ccccc4C3=O)[C@@H](CO[Si](C)(C)C(C)(C)C)O2)c(=O)[nH]c1=O | > 100 µM (inactive) | 37 µM (inactive) | 34.9 µM (inactive) | > 100 µM (inactive) | > 100 µM (inactive) | 91.6 µM (inactive) | > 100 µM (inactive) | 24 µM (inactive) | > 100 µM (inactive) | 87.3 µM (inactive) | 23.8 µM (inactive) | 52.5 µM (inactive) | 55 µM (inactive) | 46 µM (inactive) | 19.7 µM (inactive) | > 100 µM (inactive) | 52.5 µM (inactive) | > 100 µM (inactive) | – | 36.7 µM (inactive)
N#Cc1c(-c2ccc(Cl)cc2)cc(-c2ccc(Nc3ccnc4cc(C(F)(F)F)ccc34)cc2)nc1N | 32.8 µM (inactive) | 19.3 µM (inactive) | 18.7 µM (inactive) | 28.1 µM (inactive) | 22.1 µM (inactive) | > 100 µM (inactive) | 30.2 µM (inactive) | 23 µM (inactive) | 19.5 µM (inactive) | 63.2 µM (inactive) | 22.3 µM (inactive) | 15.7 µM (inactive) | 29.2 µM (inactive) | 28.8 µM (inactive) | 22.1 µM (inactive) | 63 µM (inactive) | 14.5 µM (inactive) | 17.9 µM (inactive) | – | 3.74 µM (inactive)
O=Cc1cccc2c1Oc1c(cccc1C(=O)O)S2 | 50.4 µM (inactive) | 52.7 µM (inactive) | 62.7 µM (inactive) | 56.1 µM (inactive) | > 100 µM (inactive) | 13.7 µM (inactive) | > 100 µM (inactive) | 78.7 µM (inactive) | > 100 µM (inactive) | 81.3 µM (inactive) | > 100 µM (inactive) | 58.3 µM (inactive) | > 100 µM (inactive) | 89.3 µM (inactive) | – | > 100 µM (inactive) | – | 98.4 µM (inactive) | – | < 0.01 µM (active)
CSc1c(C)[n+]([O-])c2cc(Cl)c(Cl)cc2[n+]1[O-] | 37.9 µM (inactive) | > 56.8 µM (inactive) | 21.9 µM (inactive) | 16.9 µM (inactive) | 19 µM (inactive) | 31.4 µM (inactive) | 17.4 µM (inactive) | > 47.1 µM (inactive) | 19.8 µM (inactive) | 16.9 µM (inactive) | 14.9 µM (inactive) | 16.3 µM (inactive) | 14 µM (inactive) | 19 µM (inactive) | 21.5 µM (inactive) | 18.3 µM (inactive) | 3.32 µM (inactive) | 16.4 µM (inactive) | – | 3.13 µM (inactive)
CC(=O)OCC1OC(SC2=N/C(=C\c3ccc(Br)s3)C(=O)N2CN2CCOCC2)C(OC(C)=O)C(OC(C)=O)C1OC(C)=O (stereo not given) | 18.6 µM (inactive) | 19.5 µM (inactive) | 16.3 µM (inactive) | 16.5 µM (inactive) | 15.7 µM (inactive) | 17.2 µM (inactive) | 22.9 µM (inactive) | 25.4 µM (inactive) | – | 16.5 µM (inactive) | 15.4 µM (inactive) | 15.5 µM (inactive) | 16.8 µM (inactive) | 15.4 µM (inactive) | – | 14.9 µM (inactive) | 10.3 µM (inactive) | 29.4 µM (inactive) | 3.77 µM (inactive) | 12.6 µM (inactive)
COc1cc(/C=C2/SC(c3ccccc3)N(c3cccc([N+](=O)[O-])c3)C2=O)cc(OC)c1OC (stereo not given) | > 100 µM (inactive) | > 100 µM (inactive) | > 100 µM (inactive) | > 100 µM (inactive) | 55.5 µM (inactive) | 95.1 µM (inactive) | > 100 µM (inactive) | – | > 100 µM (inactive) | 82.8 µM (inactive) | 95.3 µM (inactive) | > 100 µM (inactive) | – | 46.2 µM (inactive) | > 100 µM (inactive) | > 100 µM (inactive) | > 100 µM (inactive) | > 100 µM (inactive) | 60.8 µM (inactive) | –
COc1ccc(-n2c(=O)n(C)c(=O)n2-c2ccc(OC)cc2)cc1 | > 100 µM (inactive) | > 100 µM (inactive) | > 100 µM (inactive) | > 100 µM (inactive) | > 100 µM (inactive) | > 100 µM (inactive) | > 100 µM (inactive) | 56.6 µM (inactive) | > 100 µM (inactive) | – | > 100 µM (inactive) | > 100 µM (inactive) | > 100 µM (inactive) | > 100 µM (inactive) | – | > 100 µM (inactive) | > 100 µM (inactive) | – | > 100 µM (inactive) | > 100 µM (inactive)
COc1ccc(/N=N/C(=N\c2ccccc2)c2ccc(N(CCC#N)CCC#N)cc2)cc1 | 36.5 µM (inactive) | 31.2 µM (inactive) | 31.4 µM (inactive) | 76.9 µM (inactive) | > 100 µM (inactive) | 26 µM (inactive) | > 100 µM (inactive) | 38.3 µM (inactive) | 69.8 µM (inactive) | – | 51.5 µM (inactive) | 80.9 µM (inactive) | 23.4 µM (inactive) | 22.5 µM (inactive) | 19.9 µM (inactive) | 47.6 µM (inactive) | 31.3 µM (inactive) | 45.3 µM (inactive) | – | 25.9 µM (inactive)
NNC(=O)Cc1cccnc1 | > 100 µM (inactive) | > 100 µM (inactive) | > 100 µM (inactive) | > 100 µM (inactive) | > 100 µM (inactive) | > 100 µM (inactive) | > 100 µM (inactive) | > 100 µM (inactive) | > 100 µM (inactive) | > 100 µM (inactive) | > 100 µM (inactive) | > 100 µM (inactive) | > 100 µM (inactive) | > 100 µM (inactive) | > 100 µM (inactive) | > 100 µM (inactive) | > 100 µM (inactive) | > 100 µM (inactive) | > 100 µM (inactive) | –
Cc1ccc2nc(Cl)c(/C=N/N3C(=O)/C(=C/c4ccccc4S)N=C3c3ccccc3)cc2c1 | 31.4 µM (inactive) | 25.3 µM (inactive) | 28.1 µM (inactive) | 53.3 µM (inactive) | > 100 µM (inactive) | 25.5 µM (inactive) | > 100 µM (inactive) | 22.1 µM (inactive) | 23.3 µM (inactive) | – | 38.7 µM (inactive) | 21.9 µM (inactive) | 29.1 µM (inactive) | 26.9 µM (inactive) | – | 49.5 µM (inactive) | 11.7 µM (inactive) | 29.6 µM (inactive) | 15.5 µM (inactive) | 7.96 µM (inactive)
CCOC(=O)c1c(NC(=O)c2ccc(OC)cc2)sc2c1CCCC2 | > 100 µM (inactive) | > 100 µM (inactive) | > 100 µM (inactive) | > 100 µM (inactive) | > 100 µM (inactive) | > 100 µM (inactive) | > 100 µM (inactive) | – | > 100 µM (inactive) | – | > 100 µM (inactive) | > 100 µM (inactive) | > 100 µM (inactive) | > 100 µM (inactive) | > 100 µM (inactive) | > 100 µM (inactive) | > 100 µM (inactive) | – | 2.25 µM (inactive) | > 100 µM (inactive)
O=S1(=O)OCCOS(=O)(=O)C1S(=O)(=O)c1cccc2ccccc12 | 54.6 µM (inactive) | > 100 µM (inactive) | > 100 µM (inactive) | > 100 µM (inactive) | > 100 µM (inactive) | > 100 µM (inactive) | > 100 µM (inactive) | – | > 100 µM (inactive) | > 100 µM (inactive) | – | > 100 µM (inactive) | > 100 µM (inactive) | > 100 µM (inactive) | – | > 100 µM (inactive) | 41.4 µM (inactive) | > 100 µM (inactive) | 68.5 µM (inactive) | > 100 µM (inactive)
Cn1cnc2c(OCC3CCCCC3)nc(N)nc21 | > 100 µM (inactive) | > 100 µM (inactive) | > 100 µM (inactive) | > 100 µM (inactive) | > 100 µM (inactive) | > 100 µM (inactive) | > 100 µM (inactive) | 36.3 µM (inactive) | > 100 µM (inactive) | > 100 µM (inactive) | > 100 µM (inactive) | 72.9 µM (inactive) | 36.5 µM (inactive) | 11.7 µM (inactive) | > 100 µM (inactive) | > 100 µM (inactive) | > 100 µM (inactive) | > 100 µM (inactive) | > 100 µM (inactive) | –

Source: ChEMBL document CHEMBL1201862, “PubChem BioAssay data set” (2004)
